Measured values reported in paper PMC8786932, “Bicyclic azetidines target acute and chronic stages of Toxoplasma gondii by inhibiting parasite phenylalanyl t-RNA synthetase” (Nature Communications, 2022).
Several values for one entry are separate records, joined by “and”; a condition that tells them apart may be missing. Equal entries are not always repeated. Where two headings read alike, the source gives them in different places.

Experiments:
[1] = system: A549 (human lung carcinoma); test: in vitro; format: cell-based; details: EC50 host cell/EC50 T. gondii
Method: (§1) For the toxicity screen, compounds were tested in 96-well plates using all the wells as no edge affect was observed. Compounds were diluted to 40 μM (2x concentration in 10% DMEM, 0.4% DMSO) before step-wise, 3-fold dilution in 10% DMEM to create 10-dose series (20 μM to 0.001 μM). Host cells were plated in black, μ-Clear 96-well plates (Greiner Bio-One). We compared several lineages including HepG2 (human hepatocellular carcinoma (ATCC-HB-8065)), THP-1 (human monocytic tumor line), SH-SY5Y (human neuroblastoma (ATCC CRL-2266)), A549 (human lung carcinoma (ATCC CRM-CCL-185)) and Caco-2 (human intestinal adenocarcinoma (ATCC HTB-37)) and HFF (primary human foreskin fibroblast) obtained from the laboratory of John Boothroyd at Stanford University. Cells were maintained in culture media according to the formulations recommended by ATCC. Cells were plated at a density (ranging from of 5 × 10^3 to 2 × 10^4 cells/well (100 μL vol)) resulting in sub-confluent monolayers to allow expansion during the 2 day growth assay. THP-1 cells were treated with 10 ng/ml phorbol 12-myristate 13-acetate (PMA) for 24 h to differentiate into macrophages before compound addition. For all other cells, compounds were added at 6 h post seeding to host cells containing plates (200 μL final volume, 0.2% DMSO) and incubated in culture medium at 37 °C supplemented with 5% CO2. At 44 h post compound addition (50 h total growth time), culture media was aspirated and replaced with Live Imaging solution (ThermoFisher) supplemented with 10 μg/mL Hoeschst 33342 (Sigma) for 20 min at 37 °C. […] Alternatively, plates fixed with 4% formaldehyde for 10 min and stained with 10 μg/mL Hoeschst 33342 (Sigma) for 20 min and imaged using a Cytation 3 multi-mode imager (DAPI, 10x objective, 4 images/well) and nuclei quantified using the Gen5 imager software (v3.08). Assays were repeated with two technical replicates within each of two independent biological replicates.
(§2) All statistical analyses were conducted using Prism 9 (GraphPad Software, Inc.). Dose–response inhibition curves for parasite and host cell toxicity screens (EC50 values) were generated using (Log(inhibitor) vs. normalized response—Variable slope) function. […] For multiple comparisons, two-way ANOVA analysis function using either Sidák’s multiple comparisons test or Dunnett’s multiple comparisons test was applied as indicated.

[2] = system: THP-1 (human monocytic tumor line); test: in vitro; format: cell-based; details: EC50 host cell/EC50 T. gondii
Method: as §1, §2

in vitro [3] = format: cell-based, human; details: human, top 20 μM
Method: as §1, §2

[4] = system: SH-SY5Y (human neuroblastoma); test: in vitro; format: cell-based; details: EC50 host cell/EC50 T. gondii
Method: as §1, §2

in vitro [5] = format: cell-based; details: human, Caco-2; for EC50: nuclei count, 44 h, top 20 μM; for selectivity ratio: EC50 host cell/EC50 T. gondii, read-out: Caco-2 fold selectivity
Method: as §1, §2

[6] = system: HepG2 (human hepatocellular carcinoma); test: in vitro; format: cell-based; details: EC50 host cell/EC50 T. gondii
Method: as §1, §2

TgPheRS[L497I] = target: T1, TgPheRS[L497I] (Toxoplasma gondii, UniProt A0A125YPN6, L497I); test: Enzyme assay, TgPheRS L497I; format: biochemical; details: for enzyme assay readout (raw): L497I
T1 sequence (A0A125YPN6 1-525 L497I): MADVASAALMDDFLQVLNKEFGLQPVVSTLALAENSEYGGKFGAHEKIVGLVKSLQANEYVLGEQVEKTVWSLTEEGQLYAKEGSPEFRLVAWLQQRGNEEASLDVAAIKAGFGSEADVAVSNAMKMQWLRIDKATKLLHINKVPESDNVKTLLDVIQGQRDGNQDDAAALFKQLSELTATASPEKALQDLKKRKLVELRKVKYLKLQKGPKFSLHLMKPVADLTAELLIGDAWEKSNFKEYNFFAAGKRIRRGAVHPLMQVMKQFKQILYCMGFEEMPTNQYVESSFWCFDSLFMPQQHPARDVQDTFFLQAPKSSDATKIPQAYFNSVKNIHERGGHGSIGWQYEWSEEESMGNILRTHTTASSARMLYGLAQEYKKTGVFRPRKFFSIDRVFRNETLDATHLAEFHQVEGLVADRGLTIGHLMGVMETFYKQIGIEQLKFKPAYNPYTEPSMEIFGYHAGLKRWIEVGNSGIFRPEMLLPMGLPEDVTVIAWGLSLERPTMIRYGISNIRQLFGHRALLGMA
T1 sequence (S8EZ50 1-675 partner): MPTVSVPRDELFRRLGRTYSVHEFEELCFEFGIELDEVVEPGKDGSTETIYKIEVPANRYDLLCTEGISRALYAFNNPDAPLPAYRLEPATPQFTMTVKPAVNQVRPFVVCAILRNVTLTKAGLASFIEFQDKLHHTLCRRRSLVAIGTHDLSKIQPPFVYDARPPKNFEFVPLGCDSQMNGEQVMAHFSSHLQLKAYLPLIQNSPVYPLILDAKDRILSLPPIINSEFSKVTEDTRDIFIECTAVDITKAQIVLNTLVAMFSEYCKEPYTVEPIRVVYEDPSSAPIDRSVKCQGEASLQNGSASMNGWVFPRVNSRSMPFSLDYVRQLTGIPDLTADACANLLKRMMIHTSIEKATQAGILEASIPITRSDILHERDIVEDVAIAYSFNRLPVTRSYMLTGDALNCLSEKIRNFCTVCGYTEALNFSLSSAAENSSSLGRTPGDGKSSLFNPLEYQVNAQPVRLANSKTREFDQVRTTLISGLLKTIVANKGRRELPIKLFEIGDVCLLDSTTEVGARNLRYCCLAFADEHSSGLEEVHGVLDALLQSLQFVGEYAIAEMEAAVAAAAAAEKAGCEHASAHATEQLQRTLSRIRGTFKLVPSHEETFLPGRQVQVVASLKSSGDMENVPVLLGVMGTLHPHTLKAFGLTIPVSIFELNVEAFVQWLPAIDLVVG

[7] = PMA differentiated, read-out: THP-1 EC50
[8] = nuclei count, 44 h, read-out: A549 EC50
[9] = nuclei count, 44 h, read-out: HFF EC50
[10] = nuclei count, 44 h, read-out: SH-SY5Y EC50
[11] = nuclei count, 44 h after compound addition, read-out: HEPG2 EC50

SMILES | A549 fold selectivity [1] [fold] | THP-1 fold selectivity [2] [fold] | EC50 (in vitro [3]; [7]) [µM] | EC50 (in vitro [3]; [8]) [µM] | EC50 (in vitro [3]; [9]) [µM] | EC50 (in vitro [3]; [10]) [µM] | EC50 (in vitro [3]; [11]) [µM] | SH-SY5Y fold selectivity [4] [fold] | EC50 (in vitro [5]) [µM] | HEPG2 fold selectivity [6] [fold] | selectivity ratio (in vitro [5]) | enzyme assay readout (raw) (TgPheRS[L497I]; 0.000005 μM) | enzyme assay readout (raw) (TgPheRS[L497I]; 0.000050 μM) | enzyme assay readout (raw) (TgPheRS[L497I]; 0.000500 μM) | enzyme assay readout (raw) (TgPheRS[L497I]; 0.005000 μM) | enzyme assay readout (raw) (TgPheRS[L497I]; 0.050000 μM) | enzyme assay readout (raw) (TgPheRS[L497I]; 0.500000 μM) | enzyme assay readout (raw) (TgPheRS[L497I]; 5.000000 μM) | enzyme assay readout (raw) (TgPheRS[L497I]; 50.000000 μM) | IC50 (TgPheRS[L497I]; Table S4, L497I, read-out: IC50 (enzyme inhibition)) [µM]
CN(C[C@@H]1[C@H](c2ccc(C#Cc3ccccc3)cc2)[C@@H]2CN(C(=O)Nc3ccc(OC4CC4)cc3)CCCCN12)S(C)(=O)=O [BRD2987] | 114.0 | 13.4 | 0.255 | 2.17 | > 20 | 2.35 | > 20 | 123.9 | > 20 | – | – | – | – | – | – | – | – | – | – | –
COc1ccc(NC(=O)N2CCCCN3[C@H](CO)[C@H](c4ccc(C#Cc5ccccc5)cc4)[C@@H]3C2)cc1 [BRD3444] | – | 88.9 | 2.58 | > 20 | > 20 | 2.67 | 11.3 | 91.9 | 7.82 | 390.6 | 270 | – | – | – | – | – | – | – | – | –
COc1ccc(NC(=O)N2CCCCN3[C@H](CN(C)C)[C@H](c4ccc(C#Cc5ccccc5)cc4)[C@@H]3C2)cc1 [BRD7929] | – | – | 0.672 | 5.37 | 7.87 | 0.731 | 3.06 | – | 7 | – | – | 0.3299 and 0.3217 and 0.3007 | 0.3157 and 0.3171 and 0.3115 | 0.3154 and 0.3074 and 0.3183 | 0.2831 and 0.3060 and 0.3128 | 0.3012 and 0.2839 and 0.2985 | 0.2641 and 0.2615 and 0.2741 | 0.2401 and 0.2141 and 0.2271 | 0.1719 and 0.1728 and 0.1711 | 1.32
COc1ccc(NC(=O)N2CCCCN3[C@H](CN(C)S(C)(=O)=O)[C@H](c4ccc(C#Cc5ccccc5)cc4)[C@@H]3C2)cc1 [BRD8494] | > 571.4 | 13.2 | 0.461 | > 20 | > 20 | 1.79 | > 20 | 51.0 | > 20 | 571.4 | 571 | – | – | – | – | – | – | – | – | –
